Experimental data taken from PMC11109052, “Metabolism characterization and toxicity of N-hydap, a marine candidate drug for lung cancer therapy by LC–MS method” (Natural Products and Bioprospecting, 2024).

What was measured:
Cyp1a2 = assay: DME activity ex vivo in MLMs and MKMs: CYP1A2 (APAP from PH); parameters: species or system mice; key to CYP1A2 Enzymatic activity: ↑: up-regulation; ↓: down-regulation; –: no change
Procedure: Mice were randomly divided into four groups, with eight animals in each group. The mice received oral pretreatment with N-hydap for 7 days at doses of 2, 5, and 10 mg/kg/day, which were considered as the low dose, medium dose, and high dose, respectively. Correspondingly, the control group received PBS. On the 8th day, the liver and kidneys were removed, and organs from eight mice per group were combined to prepare MLMs and MKMs using the detailed procedures above. Subsequently, we determined the activity of CYP and UGT enzymes by specific substrate metabolized with MLMs (0.5 mg/mL) and MKMs (0.2 mg/mL) in vitro. Specifically, the following selective substrates were used for the respective enzymes: PH (1 μM) for CYP1A2, DIC (1 μM) for CYP2C9, MP (90 μM) for CYP2C19, DM (1 μM) for CYP2D6, CZX (10 μM) for CYP2E1, Tes (1 μM) for CYP3A4, SN38 (1 μM) for UGT1A1, CACD (100 μM) for UGT1A3, Sero (20 μM) for UGT1A6, and Prop (1 μM) for UGT1A9. All substrates were dissolved in methanol or DMSO. The incubation procedure was carried out as mentioned above, and the reaction was terminated with VER (20 ng/mL) in ESI+ mode and CLP (200 ng/mL) in ESI− mode. In the ex vivo experiments, the activity of enzymes was measured by quantifying the production of various metabolites (nM/mg protein/min). The metabolites and their corresponding enzymes are as follows: APAP from PH, 4-OH-DIC from DIC, 4-OH-MP from MP, DXO from DM, 6-OH-CZX from CZX, 6-OH-Tes from Tes, SN38-G from SN38, CACD-G from CACD, Sero-G from Sero, Prop-G from Prop. The measurements were performed using multiple reaction monitoring (MRM) transitions, which are specific mass spectrometry transitions used for quantification. The optimized parameters for each metabolite, such as declustering potential and collision energy, were described in Supplementary Table 1. All experiments were conducted in triplicate, to ensure accuracy and reproducibility.

RKMs = assay: Kinetics of N-hydap glucuronidation in RKMs; type: in vitro ADME, rat; settings: RKM
Procedure: (§1) In this study, the rats were executed by drawing blood from the abdominal aorta and mice were sacrificed with cervical dislocation before the liver and kidneys were excised. The liver and kidneys were removed, and washed with chilled cleansing solution (contains 8 mM KH2PO4, 5.6 mM EDTA·K2·2H2O, 1 mM DTT and 229.6 μM PMSF), homogenized in a tissue homogenate buffer with a pH of 7.4, (consisting of […], 8 mM K2HPO4, 250 mM sucrose, 1 mM EDTA·K2·2H2O and 229.6 μM PMSF). Subsequently, the homogenate was centrifuged at 10,400 rpm at 4 °C for 15 min, and the supernatant was then centrifuged at 35,000 rpm at 4 °C for 60 min. A 250 mM sucrose buffer was added to the pellet to reconstitute and the resuspension was stored at − 80 °C until use. Microsome protein concentrations were measured by Omni-Easy™ Instant BCA Protein Assay Kit.
(§2) Various microsomes including HLMs, HKMs, HIMs, RLMs, RKMs, MLMs and MKMs were involved in CYP and UGT reactions of N-hydap. […]
(§3) The substrate concentrations used for HLMs were 0.05, 0.5, 2, 2.5, 5, 10, 25, 50, and 100 μM. […] The rates of N-hydap-G by enzymes were expressed as nmol/mg/min, representing the amount of metabolites formed per minute per milligram of protein. Kinetic parameters were determined by analyzing the Eadie–Hofstee plots. […]

MKMs = assay: Kinetics of N-hydap glucuronidation in MKMs; type: in vitro ADME, mouse; settings: MKM
Procedure: as §1, §2, §3

## CC1CCC2C(C=CC(C)C2C(=O)c2c(O)c(C3(O)CCC(O)C4OC43)cn(O)c2=O)C1 (centres unmarked) [N-hydap, N-Hydroxyapiosporamide]
Cyp1a2; Kidney
  CYP1A2 Enzymatic activity: ↑
Cyp1a2; Liver
  CYP1A2 Enzymatic activity: –
Cyp1a2; MKMs, range stated jointly for APAP, SN38-G, 6-OH-Tes and CDCA-G
  elevation of formation rate of APAP: 12%-331%
RKMs
  Km: 125 µM
MKMs
  Km: 405 µM
